Reference: patent US20200022963A1, “PHARMACEUTICAL COMPOSITION COMPRISING BETAHISTINE” (Otolanum AG, priority 2017, published 2020)
Where two headings read alike, the source gives them in different places.

Legend:
[1] = Pharmacokinetic profile after single oral, intranasal and intravenous betahistine in beagle dogs, Example 5; assay type: in vivo; conditions: beagle, dog, in vivo
Description: In this study, the pharmacokinetic profile of betahistine was evaluated after a single dose administration of betahistine in male and female beagle dogs (age 5-7 months; weight of 5-11 kg, within a range of 3 kg for each sex) for three routes of administration: oral, intranasal, and intravenous.
On Day 1 of the study, betahistine (BH) was delivered orally at a dose of 12 mg/kg, 24 mg/kg, or 48 mg/kg. Each treatment group comprised 8 animals (4 males and 4 females). For pharmacokinetic assessment, plasma samples were collected prior to dosing, and then at 5, 10, 20 and 30 min, 1, 2, 3, 6, 24 hours after dosing.
On Day 8 of the study, the animals that received oral BH at a dose of 12 mg/kg were administered the test betahistine composition intranasally at a dose of 40 mg betahistine dihydrochloride; the animals that received oral BH at a dose of 24 mg/kg were administered the test betahistine composition intranasally at a dose of 80 mg betahistine dihydrochloride; and the animals that received oral BH at a dose of 48 mg/kg were administered the test betahistine composition intranasally at a dose of 120 mg betahistine dihydrochloride. The test betahistine composition was delivered intranasally in a single dose via an Aptar nasal spray pump device at a total dose level of 40, 80 and 120 mg of betahistine dihydrochloride. Plasma samples were collected prior to dosing, and then at 5, 10, 20 and 30 min, 1, 2, 3, 6, 24 hours after dosing.
On Day 15 of the study, the animals that received oral BH at a dose of 12 mg/kg and the test betahistine composition intranasally at a dose of 40 mg betahistine dihydrochloride were administered a bolus intravenous injection of betahistine at a dose of 0.44 mg/kg. Plasma samples were collected prior to dosing, and then at 5, 10, 20 and 30 min, 1, 2, 3, 6, 24 hours after dosing.
Betahistine 13CD3 dihydrochloride and 2-pyridylacetic acid-D4 hydrochloride were used as respective internal standards. The calibration range for betahistine was 0.05-250 ng/mL and for 2-PAA 2.00-3000 ng/mL using a plasma sample volume of 0.50 mL.
For determination of betahistine, the method involved liquid-liquid extraction, for 2-PAA, the method involved protein precipitation. Plasma samples were prepared for betahistine by extraction under basic conditions with an organic solvent, then the organic phase was dried, reconstituted and transferred for LC/MS-MS analysis. […] Sample analysis was performed using reversed phase chromatography.

[2] = cited from earlier work; for Tmax: 2-PAA after oral betahistine
[3] = female, inhaled or intranasal, 6 mg/kg
[4] = female, inhaled or intranasal, 13 mg/kg
[5] = female, inhaled or intranasal, 17.7 mg/kg
[6] = male, inhaled or intranasal, 5 mg/kg
[7] = male, inhaled or intranasal, 9.8 mg/kg
[8] = male, inhaled or intranasal, 15.8 mg/kg

O=C(O)Cc1ccccn1 [2-PAA, 2-pyridylacetic acid]
AUC(0-inf) [1, 3]: 19000 ng·h/mL | AUC(0-t)/D [1, 3]: 3170 ± 812 hr*ng/mL/(mg/kg) | Cmax [1, 3]: 5570 ng/mL | Cmax/D [1, 3]: 928 ng/mL/(mg/kg) | Tmax [1, 3]: 0.75 h | half-life [1, 3]: 2.66 h | AUC(0-t) ([1]; female, inhaled or intranasal, 6 mg/kg, AUC(0-6)): 14800 ng·h/mL | AUC(0-t) ([1]; female, inhaled or intranasal, 6 mg/kg, AUC(0-t)): 19000 ng·h/mL | AUC(0-inf) [1, 4]: 25300 ng·h/mL | AUC(0-t)/D [1, 4]: 1940 ± 838 hr*ng/mL/(mg/kg) | Cmax [1, 4]: 7030 ng/mL | Cmax/D [1, 4]: 541 ng/mL/(mg/kg) | Tmax [1, 4]: 1 h | half-life [1, 4]: 2.97 h | AUC(0-t) ([1]; female, inhaled or intranasal, 13 mg/kg, AUC(0-6)): 19300 ng·h/mL | AUC(0-t) ([1]; female, inhaled or intranasal, 13 mg/kg, AUC(0-t)): 25200 ng·h/mL | AUC(0-6) [1, 5]: 10600 ng·h/mL | AUC(0-inf) [1, 5]: 14100 ng·h/mL | AUC(0-t)/D [1, 5]: 790 ± 307 hr*ng/mL/(mg/kg) | Cmax [1, 5]: 3810 ng/mL | Cmax/D [1, 5]: 215 ng/mL/(mg/kg) | T1/2 [1, 5]: 3.46 h | AUC(0-t) ([1]; female, inhaled or intranasal, 17.7 mg/kg, AUC(0-t)): 14000 ng·h/mL | AUC(0-6) ([1]; female, iv, 0.44 mg/kg): 1540 ± 101 ng·h/mL | AUC(0-inf) ([1]; female, iv, 0.44 mg/kg): 1860 ± 188 ng·h/mL | AUC(0-t) ([1]; female, iv, 0.44 mg/kg): 1830 ± 209 ng·h/mL | AUC(0-t)/D ([1]; female, iv, 0.44 mg/kg): 4160 ± 475 hr*ng/mL/(mg/kg) | Cmax ([1]; female, iv, 0.44 mg/kg): 722 ± 75.3 ng/mL | Cmax/D ([1]; female, iv, 0.44 mg/kg): 1640 ± 171 ng/mL/(mg/kg) | T1/2 ([1]; female, iv, 0.44 mg/kg): 2.78 h | Tmax (median) ([1]; female, iv, 0.44 mg/kg): 0.18 h | AUC(0-6) ([1]; female, po, 12 mg/kg): 41300 ng·h/mL | AUC(0-int) ([1]; female, po, 12 mg/kg): 57200 ± 11300 ng·h/mL | AUC(0-t) ([1]; female, po, 12 mg/kg): 57200 ± 11300 ng·h/mL | AUC(0-t)/D ([1]; female, po, 12 mg/kg): 4760 ± 940 hr*ng/mL/(mg/kg) | Cmax ([1]; female, po, 12 mg/kg): 14500 ng/mL | Cmax/D ([1]; female, po, 12 mg/kg): 1210 ng/mL/(mg/kg) | T1/2 ([1]; female, po, 12 mg/kg): 2.12 ± 0.110 h | AUC(0-6) ([1]; female, po, 24 mg/kg): 69300 ng·h/mL | AUC(0-int) ([1]; female, po, 24 mg/kg): 110000 ± 14300 ng·h/mL | AUC(0-t) ([1]; female, po, 24 mg/kg): 110000 ± 14300 ng·h/mL | AUC(0-t)/D ([1]; female, po, 24 mg/kg): 4590 ± 594 hr*ng/mL/(mg/kg) | Cmax ([1]; female, po, 24 mg/kg): 21300 ng/mL | Cmax/D ([1]; female, po, 24 mg/kg): 885 ng/mL/(mg/kg) | T1/2 ([1]; female, po, 24 mg/kg): 2.14 ± 0.176 h | Tmax (median) ([1]; female, po, 24 mg/kg): 2 h | AUC(0-6) ([1]; female, po, 48 mg/kg): 144000 ng·h/mL | AUC(0-int) ([1]; female, po, 48 mg/kg): 208000 ± 35000 ng·h/mL | AUC(0-t) ([1]; female, po, 48 mg/kg): 237000 ± 63500 ng·h/mL | AUC(0-t)/D ([1]; female, po, 48 mg/kg): 4930 ± 1320 hr*ng/mL/(mg/kg) | Cmax ([1]; female, po, 48 mg/kg): 37500 ng/mL | Cmax/D ([1]; female, po, 48 mg/kg): 781 ng/mL/(mg/kg) | T1/2 ([1]; female, po, 48 mg/kg): 2.24 ± 0.170 h | Tmax (median) ([1]; female, po, 48 mg/kg): 2 h | AUC(0-6) [1, 6]: 9440 ng·h/mL | AUC(0-inf) [1, 6]: 12200 ng·h/mL | AUC(0-t) [1, 6]: 12200 ng·h/mL | AUC(0-t)/D [1, 6]: 2440 ± 2160 hr*ng/mL/(mg/kg) | Cmax [1, 6]: 3480 ng/mL | Cmax/D [1, 6]: 695 ng/mL/(mg/kg) | T1/2 [1, 6]: 2.96 h | Tmax (median) [1, 6]: 0.5 h | AUC(0-inf) [1, 7]: 10400 ng·h/mL | AUC(0-t)/D [1, 7]: 1060 ± 368 hr*ng/mL/(mg/kg) | Cmax [1, 7]: 3320 ng/mL | Cmax/D [1, 7]: 339 ng/mL/(mg/kg) | Tmax [1, 7]: 1 h | half-life [1, 7]: 2.86 h | AUC(0-t) ([1]; male, inhaled or intranasal, 9.8 mg/kg, AUC(0-6)): 8450 ng·h/mL | AUC(0-t) ([1]; male, inhaled or intranasal, 9.8 mg/kg, AUC(0-t)): 10400 ng·h/mL | AUC(0-inf) [1, 8]: 12800 ng·h/mL | AUC(0-t)/D [1, 8]: 806 ± 197 hr*ng/mL/(mg/kg) | Cmax [1, 8]: 3930 ng/mL | Cmax/D [1, 8]: 249 ng/mL/(mg/kg) | Tmax [1, 8]: 1 h | half-life [1, 8]: 2.87 h | AUC(0-t) ([1]; male, inhaled or intranasal, 15.8 mg/kg, AUC(0-6)): 10200 ng·h/mL | AUC(0-t) ([1]; male, inhaled or intranasal, 15.8 mg/kg, AUC(0-t)): 12700 ng·h/mL | AUC(0-6) ([1]; male, iv, 0.44 mg/kg): 1450 ± 388 ng·h/mL | AUC(0-inf) ([1]; male, iv, 0.44 mg/kg): 1760 ± 642 ng·h/mL | AUC(0-t) ([1]; male, iv, 0.44 mg/kg): 1740 ± 641 ng·h/mL | AUC(0-t)/D ([1]; male, iv, 0.44 mg/kg): 3960 ± 1460 hr*ng/mL/(mg/kg) | Cmax ([1]; male, iv, 0.44 mg/kg): 736 ± 53.5 ng/mL | Cmax/D ([1]; male, iv, 0.44 mg/kg): 1670 ± 121 ng/mL/(mg/kg) | T1/2 ([1]; male, iv, 0.44 mg/kg): 2.59 h | Tmax (median) ([1]; male, iv, 0.44 mg/kg): 0.13 h | AUC(0-6) ([1]; male, po, 12 mg/kg): 37300 ng·h/mL | AUC(0-int) ([1]; male, po, 12 mg/kg): 50500 ± 21100 ng·h/mL | AUC(0-t) ([1]; male, po, 12 mg/kg): 50500 ± 21100 ng·h/mL | AUC(0-t)/D ([1]; male, po, 12 mg/kg): 4210 ± 1760 hr*ng/mL/(mg/kg) | Cmax ([1]; male, po, 12 mg/kg): 12700 ng/mL | Cmax/D ([1]; male, po, 12 mg/kg): 1060 ng/mL/(mg/kg) | T1/2 ([1]; male, po, 12 mg/kg): 2.21 ± 0.160 h | AUC(0-int) ([1]; male, po, 24 mg/kg): 107000 ± 28200 ng·h/mL | AUC(0-t)/D ([1]; male, po, 24 mg/kg): 4460 ± 1180 hr*ng/mL/(mg/kg) | Cmax ([1]; male, po, 24 mg/kg): 26400 ng/mL | Cmax/D ([1]; male, po, 24 mg/kg): 1100 ng/mL/(mg/kg) | T1/2 ([1]; male, po, 24 mg/kg): 2.04 ± 0.107 h | Tmax ([1]; male, po, 24 mg/kg): 1.5 h | AUC(0-t) ([1]; male, po, 24 mg/kg, AUC(0-6)): 76400 ng·h/mL | AUC(0-t) ([1]; male, po, 24 mg/kg, AUC(0-t)): 107000 ± 28200 ng·h/mL | AUC(0-6) ([1]; male, po, 48 mg/kg): 178000 ng·h/mL | AUC(0-int) ([1]; male, po, 48 mg/kg): 286000 ± 39300 ng·h/mL | AUC(0-t) ([1]; male, po, 48 mg/kg): 286000 ± 39200 ng·h/mL | AUC(0-t)/D ([1]; male, po, 48 mg/kg): 5950 ± 817 hr*ng/mL/(mg/kg) | Cmax ([1]; male, po, 48 mg/kg): 50900 ng/mL | Cmax/D ([1]; male, po, 48 mg/kg): 1060 ng/mL/(mg/kg) | T1/2 ([1]; male, po, 48 mg/kg): 2.10 ± 0.181 h | Tmax (median) ([1]; male, po, 48 mg/kg): 2 h | peak concentration ([2]; human, 2-PAA after oral betahistine 16 mg, Val et al.): 522 ng/mL | Tmax ([2]; human, Chen et al. (2003)): 1 h | Tmax ([2]; human, Moorthy et al.): 1.5 h | pharmacological activity ([2]; metabolite formed by monoamine oxidase): no pharmacological activity
